Source: ChEMBL document CHEMBL1201862, “PubChem BioAssay data set” (2004)
Active and inactive are the calls of the source.

Experiments:
[1] = inhibitors of intracellular T. cruzi replication, confirmation, NIH3T3 host cells, beta-gal luminescence (AID 2044); format: functional, cell-based;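 also: intracellular parasites grown in NIH/3T3 mouse fibroblasts as host cells; luminescent beta-galactosidase reporter signal from transgenic T. cruzi replicating inside host cells; inhibitors lower the luminescence signal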
[2] = biological target: DNA dC->dU-editing enzyme APOBEC-3G (Homo sapiens, UniProt Q9HC16); format: functional;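 also: Dose-response counterscreen measuring inhibition of APOBEC3G DNA deaminase activity, run while confirming APOBEC3A inhibitors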
[3] = cytotoxicity toward NIH3T3 fibroblasts, dose response, counter-screen, cell-based, ATP luminescence, mouse fibroblasts (AID 2010); format: functional;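 also: cells exposed to compound for about 90 hours before reading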
[4] = biological target: DNA dC->dU-editing enzyme APOBEC-3A (Homo sapiens, UniProt P31941); experiment: Dose Response confirmation of small molecule APOBEC3A DNA Deaminase Inhibitors via a fluorescence-based single-stranded DNA deaminase assay. [Related pubchem assays (depositor defined):AID493011, AID493024]; format: functional
[5] = biological target: Heat shock protein HSP 90-alpha (Homo sapiens, UniProt P07900); format: functional, organism-based
[6] = Intein inhibitors as potential Tuberculosis drugs, a cytotoxicity screen. [Related pubchem assays (depositor defined):AID2221, AID2223, AID434968, AID435010, AID449749, AID449750, AID489010]; format: functional
[7] = control 3'UTR Renilla luciferase suppression, dose response, counter-screen for Shn3 inhibitor project, cell-based, Clone20-Shn3RL, cherry-picked (AID 624133); format: functional
Protein RecA = biological target: T1, Protein RecA (Mycobacterium tuberculosis, UniProt P9WHJ3); experiment: Fluorescence Cell-Free Homogeneous Dose Retest to Identify Inhibitors of RecA-Intein Splicing Activity. [Related pubchem assays (depositor defined):AID2097, AID2223, AID489010, AID492950]; format: functional
T1 sequence (P9WHJ3 whole entry): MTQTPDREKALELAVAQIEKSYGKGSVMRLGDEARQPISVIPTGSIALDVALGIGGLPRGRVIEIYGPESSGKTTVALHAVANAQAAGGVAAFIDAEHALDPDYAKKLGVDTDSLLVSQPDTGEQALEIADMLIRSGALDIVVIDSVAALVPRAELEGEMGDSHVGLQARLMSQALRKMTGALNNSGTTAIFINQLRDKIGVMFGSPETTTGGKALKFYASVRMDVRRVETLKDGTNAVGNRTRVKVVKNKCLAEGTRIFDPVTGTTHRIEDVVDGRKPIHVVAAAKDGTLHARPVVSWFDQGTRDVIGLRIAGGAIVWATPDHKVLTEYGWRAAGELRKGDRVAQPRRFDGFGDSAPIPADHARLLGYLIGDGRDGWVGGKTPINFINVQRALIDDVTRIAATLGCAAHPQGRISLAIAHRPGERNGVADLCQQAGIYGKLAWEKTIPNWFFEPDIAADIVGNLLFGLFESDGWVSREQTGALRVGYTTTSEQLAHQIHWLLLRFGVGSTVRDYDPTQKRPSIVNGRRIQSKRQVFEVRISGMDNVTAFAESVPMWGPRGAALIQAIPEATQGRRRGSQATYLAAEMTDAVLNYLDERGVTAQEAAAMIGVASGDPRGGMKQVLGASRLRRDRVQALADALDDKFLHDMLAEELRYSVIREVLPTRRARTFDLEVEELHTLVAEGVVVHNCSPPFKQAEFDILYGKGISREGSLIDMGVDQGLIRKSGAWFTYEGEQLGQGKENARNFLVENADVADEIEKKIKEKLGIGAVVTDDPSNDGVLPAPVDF

[8] = NIH-3T3 fibroblast cytotoxicity, dose response, cytotoxicity control, cell-based, fluorescence, Alamar Blue, secondary assay (AID 2327); format: functional;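 also: NIH-3T3 mouse fibroblasts cultured with fluconazole at 8 µg/mL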
Cytochrome P450 2C9 = Cytochrome P450 2C9 (Homo sapiens, UniProt P11712)
[9] = Shn3 3'UTR reporter inhibitors, dose response, cell-based, Clone20 osteoblasts, firefly luciferase, cherry-picked (AID 624132); format: functional;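 also: firefly luciferase luminescence from reporter carrying the Shn3 3'UTR in osteoblasts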
[10] = C. albicans growth with fluconazole, confirmation, fluorescence, retest (AID 2467); format: functional, cell-based
[11] = HepG2 cell cytotoxicity, dose response, cytotoxicity control for Shn3 inhibitor project, CellTiter-Glo, cherry-picked (AID 624134); format: functional, cell-based
[12] = biological target: T2, Replicative DNA helicase DnaB (Mycobacterium tuberculosis, UniProt P9WMR3); experiment: DnaB intein splicing inhibitors, dose response, biochemical, cell-free fluorescence (AID 449749); format: functional
T2 sequence (P9WMR3 whole entry): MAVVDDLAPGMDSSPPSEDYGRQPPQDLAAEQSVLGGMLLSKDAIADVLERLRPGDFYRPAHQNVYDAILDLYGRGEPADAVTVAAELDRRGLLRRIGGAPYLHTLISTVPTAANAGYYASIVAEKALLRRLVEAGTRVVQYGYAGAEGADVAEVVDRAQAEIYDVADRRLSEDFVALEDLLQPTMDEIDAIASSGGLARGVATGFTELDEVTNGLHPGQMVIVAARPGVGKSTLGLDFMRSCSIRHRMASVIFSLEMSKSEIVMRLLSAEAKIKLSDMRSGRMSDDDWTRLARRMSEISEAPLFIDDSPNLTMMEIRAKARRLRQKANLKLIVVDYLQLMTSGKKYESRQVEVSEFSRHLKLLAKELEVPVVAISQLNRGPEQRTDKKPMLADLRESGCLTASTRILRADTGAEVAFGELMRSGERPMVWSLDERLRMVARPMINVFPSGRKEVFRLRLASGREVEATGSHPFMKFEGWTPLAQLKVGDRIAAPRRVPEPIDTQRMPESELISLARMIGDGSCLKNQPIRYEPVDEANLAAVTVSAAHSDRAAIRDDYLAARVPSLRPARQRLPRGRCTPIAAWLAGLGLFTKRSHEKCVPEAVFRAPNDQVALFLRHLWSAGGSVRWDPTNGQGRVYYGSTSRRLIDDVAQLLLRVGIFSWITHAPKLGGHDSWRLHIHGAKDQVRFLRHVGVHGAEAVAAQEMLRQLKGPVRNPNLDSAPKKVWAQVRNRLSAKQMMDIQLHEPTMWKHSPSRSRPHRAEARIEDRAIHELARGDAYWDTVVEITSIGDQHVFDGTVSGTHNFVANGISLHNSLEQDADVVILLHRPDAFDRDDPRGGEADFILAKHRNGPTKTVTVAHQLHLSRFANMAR

INS1 = experiment: beta cell apoptosis inhibitors, cytokine rescue, dose response, luminescence, retest (AID 449756); format: functional, cell-based; settings: Rattus norvegicus;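 also: cell death triggered by IL-1 beta plus TNF-alpha plus IFN-gamma mixture; protective hits raise ATP signal compared with cytokine alone wells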
Leucine aminopeptidase = biological target: T3, Leucine aminopeptidase (Plasmodium falciparum 3D7, UniProt Q8IL11); experiment: P. falciparum M17LAP inhibitors, primary screen, biochemical, fluorogenic H-Leu-NHMec substrate, 1536-well (AID 1619); format: functional
T3 sequence (Q8IL11 whole entry): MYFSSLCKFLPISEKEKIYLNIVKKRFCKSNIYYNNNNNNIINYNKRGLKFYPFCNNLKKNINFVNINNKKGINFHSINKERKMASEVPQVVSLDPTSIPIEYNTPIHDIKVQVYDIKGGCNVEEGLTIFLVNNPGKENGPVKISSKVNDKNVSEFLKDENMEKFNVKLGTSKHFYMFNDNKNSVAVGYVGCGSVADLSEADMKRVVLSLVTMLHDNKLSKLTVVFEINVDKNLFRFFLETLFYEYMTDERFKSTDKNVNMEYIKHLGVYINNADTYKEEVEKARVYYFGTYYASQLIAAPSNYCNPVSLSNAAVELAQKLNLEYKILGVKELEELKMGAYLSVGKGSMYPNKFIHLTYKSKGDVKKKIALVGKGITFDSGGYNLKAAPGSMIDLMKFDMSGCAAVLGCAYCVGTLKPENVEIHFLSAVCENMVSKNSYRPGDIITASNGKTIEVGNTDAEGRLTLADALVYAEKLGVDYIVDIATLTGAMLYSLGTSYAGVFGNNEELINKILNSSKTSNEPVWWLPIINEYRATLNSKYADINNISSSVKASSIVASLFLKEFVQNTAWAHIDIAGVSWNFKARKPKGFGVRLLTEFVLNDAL

[13] = biological target: T4, RNA-binding protein pos-1 (Caenorhabditis elegans, UniProt G5EF15); experiment: inhibitors of POS-1/mex-3 RNA binding, dose response, biochemical, fluorescence polarization (AID 1964);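 also: purified POS-1 fused to maltose binding protein made in E. coli; potency of compounds blocking POS-1 binding to fluorescent RNA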
T4 sequence (G5EF15 whole entry): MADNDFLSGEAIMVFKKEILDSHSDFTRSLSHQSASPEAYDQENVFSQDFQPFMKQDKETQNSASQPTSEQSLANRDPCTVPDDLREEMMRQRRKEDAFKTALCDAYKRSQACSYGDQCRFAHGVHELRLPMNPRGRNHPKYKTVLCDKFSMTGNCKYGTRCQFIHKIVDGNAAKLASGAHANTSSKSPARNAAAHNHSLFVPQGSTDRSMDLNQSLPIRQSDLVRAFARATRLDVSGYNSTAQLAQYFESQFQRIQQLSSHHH

[14] = biological target: T5, Zinc finger protein mex-5 (Caenorhabditis elegans, UniProt Q9XUB2); experiment: MEX-5/TCR-2 RNA interaction inhibitors, dose response, biochemical, C. elegans, fluorescence polarization (AID 1960)
T5 sequence (Q9XUB2 whole entry): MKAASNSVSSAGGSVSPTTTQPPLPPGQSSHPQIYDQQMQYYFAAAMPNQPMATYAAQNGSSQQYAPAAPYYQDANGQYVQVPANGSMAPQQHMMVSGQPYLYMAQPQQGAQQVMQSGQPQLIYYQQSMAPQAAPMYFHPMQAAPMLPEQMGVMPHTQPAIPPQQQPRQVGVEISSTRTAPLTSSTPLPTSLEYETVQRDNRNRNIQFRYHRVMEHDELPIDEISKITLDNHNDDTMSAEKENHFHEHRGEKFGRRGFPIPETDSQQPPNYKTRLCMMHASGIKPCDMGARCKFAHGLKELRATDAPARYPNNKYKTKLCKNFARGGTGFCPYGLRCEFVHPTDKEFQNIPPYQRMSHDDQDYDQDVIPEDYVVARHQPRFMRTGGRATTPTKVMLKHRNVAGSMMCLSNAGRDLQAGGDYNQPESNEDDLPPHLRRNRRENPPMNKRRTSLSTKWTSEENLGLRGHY

SUMO-activating enzyme [15] = biological target: T6, SUMO-activating enzyme (Homo sapiens, UniProt Q9UBT2); experiment: inhibitors of in vitro SUMOylation cascade, primary screen, biochemical, HTRF, uHTS (AID 2006); format: protein-complex assay
Large T antigen = Large T antigen (Simian virus 40, UniProt P03070); format: functional, Betapolyomavirus macacae;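 also: Confirmatory-stage PubChem screen for compounds that inhibit SV40 T antigen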
SUMO-activating enzyme [16] = biological target: T6, SUMO-activating enzyme; experiment: SUMOylation inhibitor hit validation, confirmation, SUMOylation inhibitor project, biochemical, AlphaScreen (AID 2018); format: functional
[17] = biological target: FAD-linked sulfhydryl oxidase ALR (Homo sapiens, UniProt P55789); experiment: inhibitors of human ALR sulfhydryl oxidase, dose response, biochemical, H2O2 detection, luminescence, cherry-pick (AID 493248)
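For CC50 in this document: cells exposed to compound for 72 hours before luminescence readout.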

Sequence of DNA dC->dU-editing enzyme APOBEC-3G (Q9HC16 whole entry): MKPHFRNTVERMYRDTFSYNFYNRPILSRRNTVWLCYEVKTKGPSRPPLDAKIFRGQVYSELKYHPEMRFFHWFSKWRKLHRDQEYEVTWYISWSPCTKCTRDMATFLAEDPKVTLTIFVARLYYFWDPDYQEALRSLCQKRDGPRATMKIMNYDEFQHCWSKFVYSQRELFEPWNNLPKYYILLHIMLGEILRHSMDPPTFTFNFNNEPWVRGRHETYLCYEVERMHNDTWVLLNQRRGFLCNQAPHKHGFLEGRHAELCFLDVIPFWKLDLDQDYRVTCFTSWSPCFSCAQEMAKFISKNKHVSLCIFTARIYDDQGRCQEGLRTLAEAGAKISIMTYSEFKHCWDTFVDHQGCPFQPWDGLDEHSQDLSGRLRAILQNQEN
Sequence of DNA dC->dU-editing enzyme APOBEC-3A (P31941 whole entry): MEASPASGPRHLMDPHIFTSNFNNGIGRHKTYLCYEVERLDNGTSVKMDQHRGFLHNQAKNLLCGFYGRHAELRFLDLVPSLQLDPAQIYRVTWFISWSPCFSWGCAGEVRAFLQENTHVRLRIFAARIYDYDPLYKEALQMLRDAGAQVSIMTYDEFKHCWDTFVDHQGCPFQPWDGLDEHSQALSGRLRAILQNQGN
T6 sequence (Q9UBE0 whole entry): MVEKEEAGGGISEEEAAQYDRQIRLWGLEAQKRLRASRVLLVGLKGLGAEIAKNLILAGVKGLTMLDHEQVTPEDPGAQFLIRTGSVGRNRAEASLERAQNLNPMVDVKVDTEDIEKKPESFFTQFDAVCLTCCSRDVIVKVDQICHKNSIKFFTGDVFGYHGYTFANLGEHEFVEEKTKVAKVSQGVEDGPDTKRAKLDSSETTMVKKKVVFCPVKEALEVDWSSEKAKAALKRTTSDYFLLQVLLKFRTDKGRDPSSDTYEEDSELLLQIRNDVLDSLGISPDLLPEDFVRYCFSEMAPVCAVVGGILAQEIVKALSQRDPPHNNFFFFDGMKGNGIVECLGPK
T6 sequence (Q9UBT2 whole entry): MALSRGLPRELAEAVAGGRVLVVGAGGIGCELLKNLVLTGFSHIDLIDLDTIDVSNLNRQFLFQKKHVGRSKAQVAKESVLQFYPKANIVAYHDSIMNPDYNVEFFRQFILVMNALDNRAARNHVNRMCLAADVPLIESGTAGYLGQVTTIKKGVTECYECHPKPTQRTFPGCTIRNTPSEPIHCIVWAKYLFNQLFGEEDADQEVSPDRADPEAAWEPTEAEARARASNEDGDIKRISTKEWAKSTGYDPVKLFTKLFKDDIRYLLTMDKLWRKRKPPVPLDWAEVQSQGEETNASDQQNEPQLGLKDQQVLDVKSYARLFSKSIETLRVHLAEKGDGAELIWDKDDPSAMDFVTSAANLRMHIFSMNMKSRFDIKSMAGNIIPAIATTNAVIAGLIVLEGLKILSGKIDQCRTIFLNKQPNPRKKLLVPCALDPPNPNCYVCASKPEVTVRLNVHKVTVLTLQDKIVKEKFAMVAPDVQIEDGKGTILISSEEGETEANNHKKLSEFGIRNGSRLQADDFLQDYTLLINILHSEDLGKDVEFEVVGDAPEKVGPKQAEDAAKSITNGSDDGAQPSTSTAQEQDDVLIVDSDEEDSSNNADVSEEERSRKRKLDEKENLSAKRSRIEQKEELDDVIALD
Sequence of Cytochrome P450 2C9 (P11712 whole entry): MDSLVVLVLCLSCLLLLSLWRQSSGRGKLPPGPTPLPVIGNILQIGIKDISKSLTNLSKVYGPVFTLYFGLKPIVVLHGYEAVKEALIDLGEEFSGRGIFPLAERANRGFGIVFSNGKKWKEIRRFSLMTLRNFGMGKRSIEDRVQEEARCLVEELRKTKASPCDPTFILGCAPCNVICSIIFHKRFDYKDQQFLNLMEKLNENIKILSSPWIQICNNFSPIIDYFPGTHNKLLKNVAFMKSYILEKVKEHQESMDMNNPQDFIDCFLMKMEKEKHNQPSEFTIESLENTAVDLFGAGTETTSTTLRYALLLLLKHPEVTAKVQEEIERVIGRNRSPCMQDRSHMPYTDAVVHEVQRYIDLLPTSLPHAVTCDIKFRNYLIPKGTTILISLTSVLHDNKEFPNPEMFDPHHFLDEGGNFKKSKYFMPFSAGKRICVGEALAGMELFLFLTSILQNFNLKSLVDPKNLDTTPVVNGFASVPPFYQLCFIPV
Sequence of Large T antigen (P03070 whole entry): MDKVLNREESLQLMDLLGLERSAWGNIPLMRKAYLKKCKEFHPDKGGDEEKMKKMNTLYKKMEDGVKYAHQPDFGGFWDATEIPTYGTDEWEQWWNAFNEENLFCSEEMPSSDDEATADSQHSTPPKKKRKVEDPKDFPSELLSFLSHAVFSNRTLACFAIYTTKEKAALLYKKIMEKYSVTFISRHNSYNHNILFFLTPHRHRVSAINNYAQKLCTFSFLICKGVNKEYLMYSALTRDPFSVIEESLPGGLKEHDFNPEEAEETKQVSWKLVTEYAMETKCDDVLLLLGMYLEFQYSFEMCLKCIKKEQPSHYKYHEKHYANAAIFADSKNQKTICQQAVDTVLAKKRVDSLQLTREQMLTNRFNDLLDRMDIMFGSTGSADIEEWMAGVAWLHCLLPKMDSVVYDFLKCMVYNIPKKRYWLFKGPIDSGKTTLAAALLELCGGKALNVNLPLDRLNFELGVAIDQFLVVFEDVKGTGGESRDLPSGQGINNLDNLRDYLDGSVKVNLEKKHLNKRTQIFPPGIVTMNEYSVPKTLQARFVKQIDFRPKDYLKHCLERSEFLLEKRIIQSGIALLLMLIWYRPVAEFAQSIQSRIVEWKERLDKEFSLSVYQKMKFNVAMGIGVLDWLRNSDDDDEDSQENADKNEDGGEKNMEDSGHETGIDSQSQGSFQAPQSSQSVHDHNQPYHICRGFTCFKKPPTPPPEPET
Sequence of FAD-linked sulfhydryl oxidase ALR (P55789 whole entry): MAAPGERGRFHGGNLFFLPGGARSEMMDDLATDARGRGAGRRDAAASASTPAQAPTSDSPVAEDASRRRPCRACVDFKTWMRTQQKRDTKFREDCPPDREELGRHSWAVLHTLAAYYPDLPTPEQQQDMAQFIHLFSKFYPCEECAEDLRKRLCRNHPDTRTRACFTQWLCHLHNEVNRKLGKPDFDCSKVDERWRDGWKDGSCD

SMILES	EC50 [1]	IC50 [2]	EC50 [3]	IC50 [4]	CC50 [6]	EC50 (Protein RecA)	AC50 [12]	further results
Cc1ccc(OCC(=O)Nc2ccc(S(=O)(=O)N(C)C3CCN(C)CC3)cc2)c(C)c1	0.32 µM (active)	6.95 µM (active)	> 60 µM (not active)	3.31 µM (active)	–	–	–	–
CCn1c(C=CN(C(C)=O)c2ccccc2)[n+](CC)c2cc(Cl)ccc21	–	4.45 µM (active)	–	2.23 µM (active)	–	–	–	–
O=C(OCn1ncc(Cl)c(Cl)c1=O)c1cccc(C(F)(F)F)c1	–	–	–	–	8.16 µM (active)	0.19 µM (active)	1.44 µM (active)	AC50 [5]: 4.11 µM (active); AC50 [7]: 7.88 µM (active); EC50 [8]: 5.31 µM (inconclusive); AC50 (Cytochrome P450 2C9): inconclusive; AC50 [9]: 3.74 µM (active); EC50 [10]: 0.781 µM (active); AC50 [11]: 49.7 µM (active)
Cc1cccc(Cn2nnc3c2C(=O)c2ccccc2C3=O)c1	2.58 µM (active)	–	> 30 µM (not active)	–	11.7 µM (active)	0.446 µM (active)	4.2 µM (active)	AC50 (INS1): 5.21 µM (active)
O=C(O)c1cccc(-n2cccc2/C=C2/NC(=O)N(Cc3ccccc3F)C2=O)c1	–	42.9 µM (active)	–	14.9 µM (active)	–	–	–	IC50 (Leucine aminopeptidase): 53.2 µM (active); EC50 [13]: > 300 µM (not active); EC50 [14]: > 300 µM (not active)
Sc1nnc(-c2ccc(Cl)cc2)n1/N=C/C=C/c1ccco1	–	–	–	–	–	–	–	IC50 (SUMO-activating enzyme [15]): 59.1 µM (active); IC50 (Large T antigen): 69.2 µM (active); IC50 (SUMO-activating enzyme [16]): 7.66 µM (active); AC50 [17]: 1.95 µM (active)
